Measurements from patent publication US5578616A, “Phenyl-alkyl-imidazoles” (Schering Corporation, priority 1995, dated 1996).

Biological target: T1, H3 receptor (Cavia porcellus, UniProt Q9JI35)
T1 construct: The source of the H3 receptors in this experiment was guinea pig brain; from tissue; host or cells: guinea pig brain membranes
T1 sequence (Q9JI35 whole entry): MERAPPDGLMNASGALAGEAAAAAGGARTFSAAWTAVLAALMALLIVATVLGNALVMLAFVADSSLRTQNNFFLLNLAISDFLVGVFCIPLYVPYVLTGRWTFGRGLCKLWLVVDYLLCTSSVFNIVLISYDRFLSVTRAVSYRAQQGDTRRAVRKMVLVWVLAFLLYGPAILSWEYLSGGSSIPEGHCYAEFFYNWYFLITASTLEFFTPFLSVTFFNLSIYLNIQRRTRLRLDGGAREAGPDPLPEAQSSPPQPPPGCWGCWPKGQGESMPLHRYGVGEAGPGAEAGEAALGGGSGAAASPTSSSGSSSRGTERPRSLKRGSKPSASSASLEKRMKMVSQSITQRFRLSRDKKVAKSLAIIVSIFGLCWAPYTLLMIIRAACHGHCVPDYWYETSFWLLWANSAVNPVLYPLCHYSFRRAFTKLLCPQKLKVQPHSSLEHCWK
Test: H3 Receptor Binding Assay
Design: species or system guinea pig
Details: not given
Procedure: The source of the H3 receptors in this experiment was guinea pig brain. The animals weighed 400-600 g. The brain tissue was homogenized using a Polytron in a solution of 50 mM Tris, pH 7.5. The final concentration of tissue in the homogenization buffer was 10% w/v. The homogenates were centrifuged at 1,000× g for 10 min. in order to remove clumps of tissue and debris. The resulting supernatants were then centrifuged at 50,000× g for 20 min. in order to sediment the membranes, which were next washed three times in homogenization buffer (50,000× g for 20 min. each). The membranes were frozen and stored at -70° C. until needed.
All compounds to be tested were dissolved in DMSO and then diluted into the binding buffer (50 mM Tris, pH 7.5) such that the final concentration was 2 μg/mL with 0.1% DMSO. Membranes were then added (400 μg of protein) to the reaction tubes. The reaction was started by the addition of 3 nM [^3 H]R-α-methylhistamine (8.8 Ci/mmol) or 3 nM [^3 H]N^α -methylhistamine (80 Ci/mmol) and continued under incubation at 30° C. for 30 min. Bound ligand was separated from unbound ligand by filtration, and the amount of radioactive ligand bound to the membranes was quantitated by liquid scintillation spectrometry. All incubations were performed in duplicate and the standard error was always less than 10%. Compounds that inhibited more than 70% of the specific binding of radioactive ligand to the receptor were serially diluted to determine a Ki (μM).
With `O=C(Nc1ccc(Cl)cc1)OCc1ccc(Cc2c[nH]cn2)cc1` [Compound 38, [4-(1H-Imidazol-4-ylmethyl)phenyl]methyl N-(4-chlorophenyl)carbamate] the Ki was 24 nM. Work on `COc1ccc(C/N=C(\N)c2ccc(Cc3c[nH]cn3)cc2)cc1` [Compound 6a, N-[(4-Methoxyphenyl)methyl]-4-[(1H-imidazol-4-yl)methyl]benzene methanimidamide] yielded a Ki of 560 nM. `NCc1ccc(Cc2c[nH]cn2)cc1` [Compound 21, 4-[(1H-Imidazol-4-yl)methyl]benzenemethanamine] gave a Ki of 78 nM. Compound `N=C(CCc1ccc(Cc2cnc[nH]2)cc1)NCc1ccc(Cl)cc1` [Compound 27, N-[(4-Chlorophenyl)methyl]-4-[(1H-imidazol-4-yl)methyl]benzene propanimidamide] has a Ki of 180 nM. `N=C(NCc1ccc(Cl)cc1)c1ccc(Cc2c[nH]cn2)cc1` [Compound 6, N-[(4-Chlorophenyl)methyl]-4-[(1H-imidazol-4-yl)methyl]benzene methanimidamide] gave a Ki of 14 nM.

Same assay, conditions: guinea pig brain membranes; 3 nM [^3 H]R-α-methylhistamine or 3 nM [^3 H]N^α -methylhistamine; 30° C., 30 min, pH 7.5; read-out: Ki
`N=C(N)c1ccc(Cc2c[nH]cn2)cc1` [Compound 9, 4-[(1H-Imidazol-4-yl)methyl]benzene methanimidamide] showed a Ki of 38 nM. Work on `N=C(N)c1cccc(Cc2c[nH]cn2)c1` [Compound 10, 3-[(1H-Imidazol-4-yl)methyl]benzene methanimidamide] yielded a Ki of 310 nM. `N=C(Cc1ccc(Cc2c[nH]cn2)cc1)NCc1ccc(Cl)cc1` [Compound 29, N-[(4-Chlorophenyl)methyl]-4-[(1H-imidazol-4-yl)methyl]benzene ethanimidamide] gave a Ki of 7.2 nM. Compound `N=C(NCc1ccc(C(F)(F)F)cc1)c1ccc(Cc2c[nH]cn2)cc1` [Compound 6b, N-[(4-trifluoromethylphenyl)methyl]-4-[(1H-imidazol-4-yl)methyl]benzenemethanimidamide] has a Ki of 140 nM. In the case of `N=C(N)c1ccc(CCc2cnc[nH]2)cc1` [Compound 17, 4-[(1H-Imidazol-4-yl)ethyl]benzene methanimidamide], the Ki is reported as 170 nM. Compound `N=C(N)c1cccc(CCc2c[nH]cn2)c1` [Compound 16, 3-[(1H-Imidazol-4-yl)ethyl]benzene methanimidamide] has a Ki of 220 nM. With `N=C(NCCc1ccccc1)c1ccc(Cc2c[nH]cn2)cc1` [Compound 6d, N-(2-Phenylethyl)-4-[(1H-imidazol-4-yl)methyl]benzene methanimidamide] the Ki was 450 nM.

Same assay, conditions: pH 7.5, read-out: Inhibition of binding of radioactive ligand, Inhibition (%) at 2 μg/ml
`O=C(NCc1ccc(Cl)cc1)c1ccc(Cc2c[nH]cn2)cc1` [Compound 33, N-[(4-Chlorophenyl)methyl]-4-(1H-imidazol-4-ylmethyl)benzamide] gave an inhibition at 2 µg/mL of 61%. `N=C(NCc1ccncc1)c1ccc(Cc2c[nH]cn2)cc1` [Compound 6c, N-[(4-Pyridyl)methyl]-4-[(1H-imidazol-4-yl)methyl]benzene methanimidamide] gave an inhibition at 2 µg/mL of 48%. Work on `Clc1ccc(COCc2ccc(Cc3c[nH]cn3)cc2)cc1` [Compound 36, 4-[[4-[[(4-Chlorophenyl)methoxy]methyl]phenyl]methyl]-1H-imidazole] yielded an inhibition at 2 µg/mL of 6 to 87%. `O=C(OCc1ccc(Cc2c[nH]cn2)cc1)c1ccc(Cl)cc1` [Compound 40, [4-(1H-Imidazol-4-ylmethyl)phenyl]methyl 4-chlorobenzoate] showed an inhibition at 2 µg/mL of 10%. `O=C(OCc1ccc(Cl)cc1)c1ccc(Cc2c[nH]cn2)cc1` [Compound 43, (4-Chlorophenyl)methyl 4-(1H-imidazol-4-ylmethyl)benzoate] gave an inhibition at 2 µg/mL of 16 to 78%.

Test system: H3 receptors
Test: not given
Details: rat; cited from earlier work
For `S=C(NC1CCCCC1)N1CCC(c2cnc[nH]2)CC1` [thioperamide], the “short-term memory and reversal learning” value is given as “can improve short-term memory and reversal learning”.

Test system: histamine H3 receptor
Test: not given
Details: mice, electrically induced convulsions; cited from earlier work
In the case of `S=C(NC1CCCCC1)N1CCC(c2cnc[nH]2)CC1` [thioperamide], the “duration of each phase of convulsion” value is listed as “decreased the duration of each phase of convulsion”.

Same assay, conditions: mice; cited from earlier work
For `S=C(NC1CCCCC1)N1CCC(c2cnc[nH]2)CC1` [thioperamide], the electroconvulsive threshold is given as “raised the electroconvulsive threshold”.
